Laboratory results from a melting point compilation (Tetko et al.).
Peptide text beside a SMILES is read from it.

| melting point [°C] | SMILES |
| --- | --- |
| 191 | O=C1C=C(NCc2cccc(Cl)c2)C(=O)c2ccccc21 |
| -34 | O=[N+]([O-])C1CCCCC1 |
| 238 | O=C(O)c1cc2ccccc2cc1C(=O)O |
| 238 | CC1CC=CC2(O1)OC1CC(=O)OC1C1(O)C(=O)c3ccccc3C(=O)C21O (stereo not drawn) |
| 47 | CC(=O)NCCN |
| 46 | CCOc1cc(Cl)c(N)c(Cl)c1 |
| 76 | Cc1ccc2c(ccc3ccccc32)n1 |
| 6.5 | CCCC(=O)C(=O)O |
| 138 to 139 | C=CCNC(=S)Nc1sc2c(c1C(=O)OCC)CCN(Cc1ccccc1)C2 |
| 144 to 148 | O=C(O)CCNC(=O)OCC1c2ccccc2-c2ccccc21 |
| 60 to 62 | CCCCCCCCc1ccc(/N=N/c2ccc(OC(=O)CC)cc2)cc1 |
| 62 to 65 | CC(C)NC(=O)CC#N |
| 89 | CCC(CO)NCCNC(CC)CO (stereo not drawn) |
| 72 to 73 | CN1C(=O)CSC1=S |
| 64 | COc1ccc2nc(C)ccc2c1 |
| 113 | c1c2c(cc3c1CCCN3)NCCC2 |
| 385 | Clc1c(Br)c(Br)c2c(c1Br)Oc1c(Br)c(Br)c(Cl)c(Br)c1O2 |
| 266 | Cc1cccc(C)c1NC(=O)c1ccc[nH]c1=O |
| 123 | CCCCCCCC(=O)c1ccc(NC(C)=O)cc1 |
| 127 | c1ccc(P(CCCCCCP(c2ccccc2)c2ccccc2)c2ccccc2)cc1 |
| 122 to 124 | CC1=NN(CN2CCCCC2)C(=O)/C1=N\Nc1ccc(Cl)cc1Cl |

| melting point [°C] | SMILES |
| --- | --- |
| 57.5 | CCC(CO)(CO)[N+](=O)[O-] |
| 58 | O=[N+]([O-])c1ccc(Oc2ccccc2)cc1 |
| 121 | O=C(O)c1cc(Br)cs1 |
| -37 | COC(=O)CCCC(=O)OC |
| 88 to 90 | N#Cc1c(F)cccc1OCC(F)(F)F |
| 132 | NNC(=S)Nc1cccc(Cl)c1 |
| 65 to 66 | Nc1csc(C(F)(F)F)c1-c1ccccc1 |
| 187 | CC1=NN(CN2CCOCC2)C(=O)/C1=N\Nc1ccc(C(=O)O)cc1 |
| 37 | C[Si](C)(Cl)CC[Si](C)(C)Cl |
| 70 to 73 | CCCCCCCCCCCCOc1ccc(C=O)cc1OCCCCCCCCCCCC |
| 141 to 144 | COC(=O)c1sc(SC)c(S(=O)(=O)C(C)C)c1Cl |
| 40 | OC1CCC(O)C1 (stereo not drawn) |
| 234 to 242 | Nc1ccc([N+](=O)[O-])c(C(=O)O)c1 |
| 184 | CC1=C(CC(=O)O)c2cc(F)ccc2C1=Cc1ccc(S(C)=O)cc1 (stereo not drawn) |
| 15 | CCc1ccc(O)c(OC)c1 |
| 95 to 97 | OCC(F)(F)C(F)(F)C(F)(F)C(F)(F)C(F)(F)C(F)(F)C(F)(F)C(F)(F)C(F)(F)C(F)F |
| 200 to 201 | CNC(=NO)c1cc(C(C)(C)C)c(O)c(C(C)(C)C)c1 |
| 119 | Brc1cccc(Br)n1 |
| 171 to 172 | CCOC(=O)c1c(-c2ccccc2)csc1NC(=O)c1ccc(Cl)cc1 |
| 149 | COc1cc(OC)c2c(=O)c(=O)c2c1 |
| 248 | CC[C@H](C)[C@H](NC(=O)CN)C(=O)O (H-Gly-Ile-OH) |

| melting point [°C] | SMILES |
| --- | --- |
| 98 to 99 | Cc1nc(-c2cccc(C=O)c2)no1 |
| 82 to 83 | CC(=O)Nc1ccc(CC#N)cc1 |
| 273 | COc1cc2nc(N3CCN(C(=O)C4CCCO4)CC3)nc(N)c2cc1OC (stereo not drawn) |
| 92 | Cc1cc2ccccc2cc1COC(=O)C(F)(F)F |
| 84 | O=S(O)c1ccccc1 |
| 36 | CCOC(=O)C1CC(=O)C(=C(O)C2CC2)C(=O)C1 (stereo not drawn) |
| 200 | CC(O)C(C)C(N)C(=O)O (stereo not drawn) |
| -28 | CC1CCSCC1 |
| 88 to 92 | C[C@@]12C=CC(=O)N1[C@@H](c1ccccc1)CO2 |
| 132 | COC(=O)C=Cc1cccc(C=CC(=O)OC)c1 |
| 89 | N#Cc1ccc(N)c(F)c1 |
| 84 | O=C1OC(/C=C/c2ccccc2)Cc2ccccc21 (stereo not drawn) |
| 106 to 111 | OC1CN(C(c2ccccc2)c2ccccc2)C1 |
| 161 | COc1ccc(-c2nnc3n2NC(c2ccco2)S3)cc1 (stereo not drawn) |
| -50 | CCCCC(CC)COP(=O)(O)OCC(CC)CCCC (stereo not drawn) |
| 88 | Cc1ccc(C(c2ccc(C)o2)c2cc(Br)cc(Br)c2O)o1 |
| 75 | Cc1cc(N)n(C)n1 |
| 88 to 91 | Cc1ccc(N)c(Cl)n1 |
| 200 | CC(NC(=O)CCCCNC(=O)C12CC3CC(CC(C3)C1)C2)C(=O)NC(CCC(=O)O)C(N)=O (stereo not drawn) |
| 156 | O=C(O)c1ccc2c(c1)CCCC2 |
| 112 | Cc1c(C)c(C)c(CC#N)c(C)c1C |

| melting point [°C] | SMILES |
| --- | --- |
| 148 to 151 | O=C1c2ccccc2S(=O)(=O)N1Cl |
| 128 to 131 | Cc1cccc2c(O)cc(C(F)(F)F)nc12 |
| 240 | N[C@@H](CS)C(=O)O |
| 220 | O=C(O)c1ccc(N=C=S)cc1 |
| 89 to 91 | CC(C)(C)OC(=O)N1CCC(C(=O)c2ccc(F)cc2)CC1 |
| 55 | CC(=O)c1c(-c2ccccc2)cc2ccccc2c1O |
| 118 | Nc1nc(CC(=O)O)cs1 |
| 58 to 59 | OC1Cc2ccccc21 (stereo not drawn) |
| 193 | O=C1CC(C(F)(F)F)=NN1c1ccccc1 |
| 139 | CCOC(=O)/C(=N\Nc1ccc(C)cc1C)C(=O)C(F)(F)F |
| 149 to 153 | O=C(O)[C@H]1CCCCN1C(=O)OCC1c2ccccc2-c2ccccc21 |
| 114 | COc1cc(CCNC(=O)CC(C)C)ccc1OCc1ccccc1 |
| 176 to 178 | O=C(NC1(Cc2ccccc2)COCOC1=O)c1ccccc1 (racemic) |
| 156 to 157 | CCOC(=O)c1cn2nc(Cl)ccc2n1 |
| 63 | CCOC(=O)N1CCNC(c2ccccc2)C1 (stereo not drawn) |
| 62 | c1c2c(cc3c1OCO3)CC2 |
| 95 | Cc1cc(O)c(C2CC3CCC2(C)C3(C)C)cc1C (stereo not drawn) |
| 43 to 46 | C=CCN1C(=O)CSC1=S |

| SMILES | melting point [°C] |
| --- | --- |
| ON=Cc1cccnc1 | 150 |
| CC(Cl)C(N)=O (stereo not drawn) | 76 to 81 |
| CC(C)(c1cc(Br)c(OCCO)c(Br)c1)c1cc(Br)c(OCCO)c(Br)c1 | 108 to 114 |
| CN1CCC23c4c5ccc(O)c4OC2C(=O)CCC3(O)C1C5 (stereo not drawn) | 248 |
| CCCOC1CCC2C3CC=C4CC5(CCC4(C)C3CCC12C)OCCO5 (stereo not drawn) | 213 to 214 |
| CCCCCCC(O)C1C2=C(CC(C(O)C3CC=CC(=O)O3)CC3=C(C(=O)OC3=O)C1O)C(=O)OC2=O (stereo not drawn) | 170 |
| COP(=S)(OC)Oc1cc(Cl)c(Br)cc1Cl | 53.5 |
| COc1ccc(C(O)(c2cncnc2)C2CC2)cc1 (stereo not drawn) | 110 |
| CC(=O)OC1CCC2(C)C(=CCC3C4CCC(=O)C4(C)CCC32)C1 (stereo not drawn) | 147 |
| O=C(CCl)c1ccc(O)c(O)c1 | 174 |
| C=CCN1CCC23c4c5ccc(O)c4OC2C(O)C=CC3C1C5 (stereo not drawn) | 208 |
| CC(Cl)(Cl)C(=O)O | -5 |
